Data taken from PMC3919717 (PLoS ONE, 2014).

Legend:
Conditions in all cases: 50 nM enzyme; BAEE 0.04-0.2 mg/ml; 37°C; native glycosylated enzyme
RV-FVPβ = test system: RV-FVPβ
RV-FVPα = format: biochemical, Daboia russelii
RV-FVPγ = test system: RV-FVPγ
RV-FVPδ = test system: RV-FVPδ

CCOC(=O)[C@H](CCCNC(=N)N)NC(=O)c1ccccc1 [BAEE]
Km (RV-FVPβ): 0.156 mg/mL
Km (RV-FVPα): 0.143 mg/mL
Km (RV-FVPγ): 0.159 mg/mL
Km (RV-FVPδ): 0.159 mg/mL
